Tests used:
[1] = tested on: maize seed; test: In planta transformation of maize seeds using pIG121-1-carrying Agrobacterium with abscisic acid; type: in vivo, maize (Zea mays); details: abscisic acid 100 μM
Experimental: Seeds of maize (Zea mays) were washed with sterile water 2 or 3 times to wash the red disinfectant away from the seed coat. The washed seeds were soaked in sterile water and incubated at 25° C. for 2 days. Water was exchanged with fresh water once during incubation. Thus, the seeds absorbed water and the embryonic portions became white. These seeds were used for the experiment described below. A bacterial solution containing pIG121-1-carrying Agrobacterium and abscisic acid (final concentration: 100 μM) was prepared as an Agrobacterium solution for inoculation in the same manner as in Example 1.
With the use of a needle (φ 0.71 mm), the shoot (length: 1 mm) of the embryo (longer diameter: about 1 cm) of the maize seed was pierced 4 times on the apex, in which the meristem was considered to be present, to a depth of 0.5 mm to 1 mm to provide 4 pores in an area of about 2 mm square. Thereafter, the Agrobacterium solution for inoculation prepared above was applied dropwise to the pores using a pipette to inoculate the seeds with Agrobacterium.
Subsequently, a filter paper was placed in a petri dish and moistened with water. The maize seeds inoculated with Agrobacterium were placed on the filter paper and the petri dish was covered. The petri dish was then placed in an incubator at 25° C., and incubation was carried out in the dark for 2 days. After co-culture was conducted for 2 days, the seeds were sowed in culture soil and grown.
Gene introduction in the T0 generation was verified in the same manner as in Example 1. Plants (5-leaf stage) 20 days after transformation were used for genomic PCR. […] A 544-bp PCR product indicating GUS gene introduction was detected in 2 plants.

[2] = tested on: wheat seeds; test: In planta Agrobacterium (LBA4404, pIG121-1) transformation of wheat seeds under application of a plant growth-inhibiting hormone; type: in vivo, wheat (Triticum aestivum L.); details: for Transformation efficiency (T0 generation×T1 generation): hormone 100 μM in bacterial solution, variety Yumechikara, shoot length about 2 mm, soaked about 20 min, co-culture 22° C. 2 days
Experimental: Transformation efficiency for the transformed plant thus obtained can be determined. Transformation efficiency (T0 generation×T1 generation) is determined by multiplying transformation efficiency for the T0 generation (the number of transformed plants of T0 generation/the number of plants subjected to transformation) and transformation efficiency for the T1 generation (the number of transformed plants of T1 generation/(the number of plants of T1 generation subjected to the verification for incorporation of foreign genes into genomes).
The Agrobacterium into which pIG121-1 had been introduced prepared above were cultured in LB medium containing kanamycin and streptomycin (50 mg/1 each) at 28° C. for 18 hours to prepare an Agrobacterium solution. Through this culture, the transformed Agrobacterium carrying pIG121-1 were selected on the basis of functions of the kanamycin resistance gene and the streptomycin resistance gene existing outside the T-DNA region of pIG121-1.
Abscisic acid (final concentration: 100 μM) was added to the bacterial solution prepared in the manner described above, and the resulting bacterial solution was used below as an Agrobacterium solution for inoculation.
Pretreatment of seeds was carried out by soaking wheat seeds (variety: Yumechikara (Wheat Nourin 172)) in 70% ethanol for 5 minutes, followed by shaking in a 20% antiformin solution for 10 minutes. The seeds were washed with water to remove the antiformin solution, wrapped in moistened Kim towel, and then cultured at 25° C. for 36 to 40 hours for germination.
Subsequently, a portion around the shoot of the seed (shoot length: about 2 mm) was pierced with a needle (diameter: 0.71 mm) to a depth of about 1 mm to provide a pore. The seeds with thus wounded meristems were soaked in the Agrobacterium solution prepared above for about 20 minutes to inoculate the seeds with the Agrobacterium. Thereafter, the seeds were removed from the Agrobacterium solution, mounted on moistened Kim towel, and then cultured in a covered petri dish at 22° C. for 2 days (co-culture). Thus, the seeds were infected with Agrobacterium. Next, in order to disinfect Agrobacterium, the co-cultured seeds were soaked in an aqueous solution of cefotaxime (1,000 ppm) and then shaken at room temperature for 2 hours. Subsequently, the seeds were removed from the aqueous solution of cefotaxime, mounted on moistened Kim towel, and then grown in a covered petri dish at 25° C. for 2 days. The seeds were transferred to a pot containing culture soil and then grown at 25° C. under the long-day conditions (a light period of 16 hours and a dark period of 8 hours).
When the seeds grew to the 5- to 6-leaf stage, genome PCR was carried out to select transformants.
Considering that Yumechikara is an autumn wheat variety, the obtained transformants were subjected to vernalization at 4° C. for 1.5 months to facilitate flower bud formation. Subsequently, the transformants (T0 generation) were self-crossed to obtain T1 seeds, and gene introduction and gene expression in the T1 generation were verified.
Gene introduction at the T1 generation was verified via genome PCR under the same conditions as with the case of the T0 generation. […] A band of interest was detected in 3 of the 14 individuals subjected to the genome PCR.
Jasmonic acid (final concentration: 100 μM) was added to the bacterial solution prepared in the manner described above, and the resulting bacterial solution was used below as an Agrobacterium solution for inoculation.
Subsequently, a portion around the shoot of the seed (shoot length: about 2 mm) was pierced with a needle (diameter: 0.71 mm) to a depth of about 1 mm to provide a pore. The seeds with thus wound meristems were soaked in the Agrobacterium solution prepared above for about 20 minutes to inoculate the seeds with the Agrobacterium. […]

[3] = tested on: soybeans, variety "Toyomusume"; test: In planta transformation of soybeans using the Agrobacterium tumefaciens M21 mutant with abscisic acid; type: in vivo, soybean (Glycine max); details: abscisic acid 100 μM
Experimental: Plant transformation was carried out in the same manner as in Example 8, except that the Agrobacterium tumefaciens M21 mutant was used, and then gene introduction in the T0 generation was verified.
The Agrobacterium tumefaciens M21 mutant (hereafter referred to as “the M21 mutant”) was obtained via mutation of the Agrobacterium tumefaciens A208 strain (C58 chromosome, nopaline T37 pTi) with the use of transposon 5 (Tn5) (Majumder, P. et al., J. Biosci. Bioeng., 90: 328-331, 2000; WO 2005/024034). In the M21 mutant, Tn5 is inserted into the tryptophan monooxygenase gene involved in biosynthesis of indoleacetic acid (IAA) in the T-DNA region of the Ti plasmid. This would cause hormone imbalance in plants transformed via infection with the M21 mutant, which would lead to phenotypic changes. Thus, the presence or absence of the transformation was easily determined via visual inspection.
Transformation efficiency (T0 generation) achieved by the method of the present invention was 75%.

[4] = tested on: soybeans, variety "Toyomusume"; test: In planta Agrobacterium (LBA4404, pIG121-1) transformation of soybean axillary buds with abscisic acid; type: in vivo, soybean (Glycine max); details: abscisic acid 100 μM, axillary buds of plants 14 days after germination
Experimental: Plant transformation was carried out in the same manner as in Example 1, except that a variety “Toyomusume” of soybeans was used and axillary buds of the plants 14 days after germination were inoculated with Agrobacterium, and then gene introduction and gene expression in the T0 generation were verified.

[5] = tested on: wheat seeds; test: In planta Agrobacterium (LBA4404, pIG121-1) transformation of wheat seeds under application of a plant growth-inhibiting hormone; type: in vivo, wheat (Triticum aestivum L.)
[6] = 13 plants subjected to transformation
[7] = abscisic acid 100 μM, Yumechikara, shoot about 2 mm, co-culture 22° C., genome PCR
[8] = 12 plants subjected to transformation

Row | Structure (SMILES) | Number of untransformed plants [1, 6] | Untransformed plants, percent [1, 6] [%] | Number of transformed plants ([1]; 13 plants subjected to transformation, 544-bp GUS PCR product) | Transformation efficiency (T0 generation) ([1]; shoot 1 mm pierced 4 times, co-culture 25° C. 2 days, genomic PCR 20 days after transformation, 13 plants) [%] | Transformation efficiency (T0) [2, 7] [%] | Transformation efficiency (T1) [2, 7] [%] | Individuals with band of interest, T1 generation ([2]; abscisic acid 100 μM, of the 14 individuals subjected to genome PCR) | Individuals with GUS gene band (544 bp), T0 generation ([2]; abscisic acid 100 μM, of the 14 transformed individuals, genome PCR) | Transformation efficiency (T0 generation×T1 generation) [2] [%] | Number of transformed plants [3, 8] | Number of untransformed plants [3, 8] | Untransformed plants, percent [3, 8] [%] | Transformation efficiency (T0 generation) ([3]; axillary buds, tumorigenesis by visual inspection, 12 plants) [%] | Transformation efficiency (T0 generation) [4] [%] | Transformation efficiency (T0 generation×T1 generation) ([5]; abscisic acid 100 μM and Tween 20 0.1%, Yumechikara, shoot 1 mm or less, vacuum treatment 20 min, co-culture 28° C.) [%] | Transformation efficiency (T0 generation×T1 generation) ([5]; abscisic acid 100 μM, Tween 20 0.1%, acetosyringone 100 μM, Yumechikara, shoot 1 mm or less, vacuum treatment, co-culture 28° C.) [%] | Transformation efficiency (T0 generation×T1 generation) ([5]; as Example 4 (abscisic acid 100 μM, Tween 20, acetosyringone, vacuum, 28° C.) but wheat variety Haruyokoi) [%] | Transformation efficiency (T0 generation×T1 generation) ([5]; as Example 4 but 10 μM abscisic acid, Yumechikara) [%] | Transformation efficiency (T0 generation×T1 generation) ([5]; as Example 4 but 300 μM abscisic acid, Yumechikara) [%]
1 | CC1=CC(=O)CC(C)(C)[C@@]1(O)/C=C/C(C)=C\C(=O)O [abscisic acid] | 11 | 84.6 | 2 | 15.4 | 14.3 | 21.4 | 3 | 2 | 3.1 | 9 | 3 | 25 | 75 | 30 | 5.1 | 7.2 | 10.2 | 6.3 | 7.0
2 | CC/C=C\C[C@H]1C(=O)CC[C@@H]1CC(=O)O [jasmonic acid] |  |  |  |  |  |  |  |  | 2.4 |  |  |  |  |  |  |  |  |  | 

Source: patent US10550399B2, “Plant transformation method using plant growth inhibiting hormone” (KANEKA CORPORATION, priority 2012, dated 2020)
